{"source": "patent US9284325B2", "about": "“Spectinamides as anti-tuberculosis agents” (UNIVERSITY OF TENNESSEE RESEARCH FOUNDATION, priority 2009, dated 2016)", "system": "M. tuberculosis drug-resistant strains and mutants", "type": "cell-based, Mycobacterium tuberculosis", "note": "Counter-ions that a name gives are not always drawn."}
{"smiles": "CN[C@@H]1[C@H](O)[C@H](NC)C2O[C@]3(O)C(OC2[C@H]1O)O[C@H](C)C[C@H]3NC(=O)Cc1ccccn1", "note": "(stereo partly drawn) [Compound 1329, 3′-Dihydro-3′-deoxy-4(R)-(pyridin-2yl)acetylamino spectinomycin Dihydrochloride]", "values": [{"measurement": "cross resistance with first-line TB drugs isoniazid, rifampicin and ethambutol", "result": "no cross resistance"}, {"measurement": "susceptibility of spontaneous streptomycin mutants incl. ATCC 35820", "result": "highly susceptible"}, {"measurement": "Activity (MIC) of 1329 compared to streptomycin", "setting": "Dihydrochloride", "result": ">200"}]}
